Measurements as given in ChEMBL document CHEMBL3045408, “Receptor and ligand-based 3D-QSAR study on a series of nonsteroidal anti-inflammatory drugs” (Med Chem Res, 2013).

Experiments:
[1] = molecular target: T1, Prostaglandin G/H synthase 2 (Homo sapiens) (UniProt P35354); experiment: Ratio of compound IC50 to celecoxib IC50 for Inhibition of COX2 (unknown origin)
T1 sequence (whole entry): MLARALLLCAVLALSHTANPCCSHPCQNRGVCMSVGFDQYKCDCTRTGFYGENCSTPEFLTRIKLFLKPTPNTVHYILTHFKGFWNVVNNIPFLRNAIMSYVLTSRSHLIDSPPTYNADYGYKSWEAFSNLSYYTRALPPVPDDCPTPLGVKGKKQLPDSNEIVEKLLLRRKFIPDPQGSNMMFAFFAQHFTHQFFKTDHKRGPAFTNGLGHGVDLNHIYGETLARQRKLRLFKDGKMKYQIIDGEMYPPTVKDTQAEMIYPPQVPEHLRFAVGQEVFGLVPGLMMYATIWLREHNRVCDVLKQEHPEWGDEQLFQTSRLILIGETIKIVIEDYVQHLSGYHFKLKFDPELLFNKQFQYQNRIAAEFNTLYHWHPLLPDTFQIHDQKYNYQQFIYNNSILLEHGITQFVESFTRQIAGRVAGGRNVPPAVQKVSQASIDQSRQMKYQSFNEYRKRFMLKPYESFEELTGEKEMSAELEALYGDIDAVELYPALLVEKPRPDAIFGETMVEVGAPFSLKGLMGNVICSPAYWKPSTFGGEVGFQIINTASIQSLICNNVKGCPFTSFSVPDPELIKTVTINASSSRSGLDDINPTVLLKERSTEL

[2] = molecular target: T2, Prostaglandin G/H synthase 2 (Homo sapiens, UniProt P35354); experiment: Inhibition of COX2 (unknown origin)
T2 sequence (P35354 whole entry): T1 sequence (whole entry)

-log(RatioIC50) [1] | IC50 [2] | SMILES
-1.41 | 1800 nM | CC/C(=C(\c1ccccc1)c1ccc(NS(C)(=O)=O)cc1)c1ccccc1
-0.66 | 320 nM | CCCC/C(=C(\c1ccccc1)c1ccc(NS(C)(=O)=O)cc1)c1ccccc1
0.609 |  | CCCCC(=C(c1ccccc1)c1ccccc1)c1ccc(S(C)(=O)=O)cc1
-1.34 | 1250 nM | CCC(=C(c1ccccc1)c1ccccc1)c1ccc(S(C)(=O)=O)cc1

The next lines start with the compound.

SMILES | -log(RatioIC50) [1] | IC50 [2]
CS(=O)(=O)c1ccc(/C=C(/C(=O)O)c2cccc(-c3ccc(F)cc3F)c2)cc1 | -3.2 | > 100000 nM
CCCCC(=C(c1ccccc1)c1cc(C(C)(C)C)c(O)c(C(C)(C)C)c1)c1ccc(S(C)(=O)=O)cc1 | -0.711 | 360 nM
CS(=O)(=O)c1ccc(C=C(c2ccc(Cl)cc2)c2ccc(Cl)cc2)cc1 |  | 2000 nM
CS(=O)(=O)Nc1ccc(/C(=C(\c2ccccc2)C2CCCCC2)c2ccccc2)cc1 | -3.15 | > 100000 nM
CCCCC(=C(c1ccccc1)c1cc(C(C)(C)C)c(C(C)=O)c(C(C)(C)C)c1)c1ccc(S(C)(=O)=O)cc1 | -3.2 | > 100000 nM
CC(C)Oc1ccc(-c2cccc(/C(=C\c3ccc(S(C)(=O)=O)cc3)C(=O)O)c2)cc1 | -3.2 | > 100000 nM
